Assay results as given in ChEMBL document CHEMBL1641415, “Discovery of a novel hybrid from finasteride and epristeride as 5α-reductase inhibitor” (Bioorg Med Chem Lett, 2011).

Assays:
[1] = target: T1, 3-oxo-5-alpha-steroid 4-dehydrogenase 2 (Homo sapiens) (UniProt P31213); assay: Inhibition of human prostate 5alpha-reductase type 2 assessed as formation dihydrotestosterone from [4-14C] testosterone relative to finasteride; settings: Prostate gland
T1 sequence (whole entry): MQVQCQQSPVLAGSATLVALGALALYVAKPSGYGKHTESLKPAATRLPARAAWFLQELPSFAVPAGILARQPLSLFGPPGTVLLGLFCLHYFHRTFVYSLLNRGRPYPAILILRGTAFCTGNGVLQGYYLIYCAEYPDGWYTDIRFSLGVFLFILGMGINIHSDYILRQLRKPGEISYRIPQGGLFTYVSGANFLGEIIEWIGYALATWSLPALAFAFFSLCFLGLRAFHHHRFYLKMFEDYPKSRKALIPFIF

[2] = target: T2, 3-oxo-5-alpha-steroid 4-dehydrogenase 2 (Homo sapiens, UniProt P31213); assay: Inhibition of human prostate 5alpha-reductase type 2 assessed as formation dihydrotestosterone from [4-14C] testosterone; assay type: tissue-based, Prostate gland
T2 sequence (P31213 whole entry): T1 sequence (whole entry)

| Compound | Ratio [1] | IC50 [2] [nM] |
| --- | --- | --- |
| C[C@]12CCC(C(=O)O)=CC1=CC[C@@H]1[C@@H]2CC[C@]2(C)NC(=O)CC[C@@H]12 | 0.49 | 71 |
| C[C@]12CC[C@@H]3c4ccc(OS(=O)(=O)O)cc4CC[C@H]3[C@@H]1CCC(=O)N2 | < 0.055 | > 1000 |
| C[C@]12CC[C@@H]3c4ccc(O)cc4CC[C@H]3[C@@H]1CCC(=O)N2 | < 0.055 | > 1000 |
| CC(C)(C)NC(=O)[C@H]1CC[C@H]2[C@@H]3CC[C@H]4NC(=O)C=C[C@]4(C)[C@H]3CC[C@]12C [FINASTERIDE] |  | 35 |
